Reference: publication PMC9090415, “Discovery of small molecule inhibitors of Plasmodium falciparum apicoplast DNA polymerase” (Journal of Enzyme Inhibition and Medicinal Chemistry, 2022)

Biological target: P. falciparum apicoplast DNA polymerase (Pf-apPOL) (Plasmodium falciparum, UniProt Q8ILY1)
Test: Fluorescence-based high-throughput DNA polymerase assay (molecular beacon), primary screen and dose-response
Format: biochemical
Conditions: for DNA Pol: 90 min, 10 µM
Procedure, shortened: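 Single-point screening used 10 µM compound with 20 nM polymerase, 20 nM hairpin substrate and 6 µM dNTPs for 90 min at 25 °C. Confirmatory titrations (2.5–80 µM) followed fluorescence at three times, and IC50 was derived from a fit including a cooperativity term n.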

[1] = DRC-2, 40', concentration 20 (unit not given)
[2] = DRC-2, 90', concentration 20 (unit not given)
[3] = DRC-2, 180', concentration 20 (unit not given)
[4] = primary screen value of the 186 hits, unit not given

Chain of P. falciparum apicoplast DNA polymerase (Pf-apPOL) (Q8ILY1 entry or part of it): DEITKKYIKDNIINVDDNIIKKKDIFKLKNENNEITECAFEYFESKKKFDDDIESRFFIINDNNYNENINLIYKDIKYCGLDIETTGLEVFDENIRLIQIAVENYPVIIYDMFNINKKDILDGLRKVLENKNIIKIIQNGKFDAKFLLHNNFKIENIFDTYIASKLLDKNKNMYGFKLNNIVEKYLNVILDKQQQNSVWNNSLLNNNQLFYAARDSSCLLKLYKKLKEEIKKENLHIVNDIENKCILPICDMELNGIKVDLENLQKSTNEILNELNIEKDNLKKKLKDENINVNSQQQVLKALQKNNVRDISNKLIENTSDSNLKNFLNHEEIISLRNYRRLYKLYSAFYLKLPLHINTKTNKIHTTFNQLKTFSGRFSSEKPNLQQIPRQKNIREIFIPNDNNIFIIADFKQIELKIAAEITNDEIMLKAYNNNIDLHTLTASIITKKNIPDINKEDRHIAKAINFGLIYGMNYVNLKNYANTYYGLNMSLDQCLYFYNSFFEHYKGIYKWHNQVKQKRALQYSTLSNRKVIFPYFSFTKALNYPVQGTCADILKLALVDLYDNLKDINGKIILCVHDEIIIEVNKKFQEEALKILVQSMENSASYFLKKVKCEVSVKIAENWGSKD

SMILES: CN(C)C1C(c2ccccc2)=C(c2ccccc2)SC(c2ccccc2)C1[N+](=O)[O-] (stereo not shown) [KU0268387]
- % inhibition Apo pol 10' (DRC-1, concentration 2.5): 4.043%
- % inhibition Apo pol 10' (DRC-1, concentration 5): 23.3831%
- % inhibition Apo pol 10' (DRC-1, concentration 10): 45.0315%
- % inhibition Apo pol 10' (DRC-1, concentration 20): 49.4618%
- % inhibition Apo pol 10' (DRC-1, concentration 40): 64.8423%
- % inhibition Apo pol 10' (DRC-1, concentration 80): 77.5449%
- % inhibition Apol 90' (DRC-1, 90', concentration 2.5): 3.398%
- % inhibition Apol 90' (DRC-1, 90', concentration 5): 22.5056%
- % inhibition Apol 90' (DRC-1, 90', concentration 10): 44.0197%
- % inhibition Apol 90' (DRC-1, 90', concentration 20): 52.549%
- % inhibition Apol 90' (DRC-1, 90', concentration 40): 68.5649%
- % inhibition Apol 90' (DRC-1, 90', concentration 80): 83.9893%
- % inhibition apPOL 180' (DRC-1, 180', concentration 2.5): 1.708%
- % inhibition apPOL 180' (DRC-1, 180', concentration 5): 12.7714%
- % inhibition apPOL 180' (DRC-1, 180', concentration 10): 32.8138%
- % inhibition apPOL 180' (DRC-1, 180', concentration 20): 41.7834%
- % inhibition apPOL 180' (DRC-1, 180', concentration 40): 60.315%
- % inhibition apPOL 180' (DRC-1, 180', concentration 80): 80.8354%
- % inhibition Apol 40' [1]: 53%
- % inhibition ApPOL 90' [2]: 53%
- % inhibition apPOL 180' [3]: 47%
- % inhibition Apo pol 5' (DRC-2, 5', concentration 2.5): 0.589%
- % inhibition Apo pol 5' (DRC-2, 5', concentration 5): 19%
- % inhibition Apo pol 5' (DRC-2, 5', concentration 10): 32%
- % inhibition Apo pol 5' (DRC-2, 5', concentration 20): 40%
- % inhibition Apo pol 5' (DRC-2, 5', concentration 40): 42%
- % inhibition Apo pol 5' (DRC-2, 5', concentration 80): 47%
- % inhibition Apo pol 5' (DRC-2, 5', concentration 80 (unit not given)): 47%
- % inhibition Apol 40' (DRC-2, 40', concentration 2.5): 1.84%
- % inhibition Apol 40' (DRC-2, 40', concentration 5): 25%
- % inhibition Apol 40' (DRC-2, 40', concentration 10): 39%
- % inhibition Apol 40' (DRC-2, 40', concentration 20): 53%
- % inhibition Apol 40' (DRC-2, 40', concentration 40): 60%
- % inhibition Apol 40' (DRC-2, 40', concentration 80): 68%
- % inhibition ApPOL 90' (DRC-2, 90', concentration 2.5): 0.484%
- % inhibition ApPOL 90' (DRC-2, 90', concentration 5): 23%
- % inhibition ApPOL 90' (DRC-2, 90', concentration 10): 38%
- % inhibition ApPOL 90' (DRC-2, 90', concentration 20): 53%
- % inhibition ApPOL 90' (DRC-2, 90', concentration 40): 62%
- % inhibition ApPOL 90' (DRC-2, 90', concentration 80): 71%
- % inhibition apPOL 180' (DRC-2, 180', concentration 2.5): -3.51%
- % inhibition apPOL 180' (DRC-2, 180', concentration 5): 15%
- % inhibition apPOL 180' (DRC-2, 180', concentration 10): 31%
- % inhibition apPOL 180' (DRC-2, 180', concentration 20): 47%
- % inhibition apPOL 180' (DRC-2, 180', concentration 40): 58%
- % inhibition apPOL 180' (DRC-2, 180', concentration 80): 70%
- DNA Pol [4]: 78
- DNA Pol (primary screen value, head "DNA Pol", unit not given): 78

SMILES: Nc1c(S(=O)(=O)O)cc(Nc2ccccc2)c2c1C(=O)c1ccccc1C2=O [KU0045407]
- DNA Pol ('DNA Pol' of the 186 hits list (primary screen result), unit not given): 49
- % inhibition Apo pol 10' (DRC-1, concentration 2.5): 39.3278%
- % inhibition Apo pol 10' (DRC-1, concentration 5): 47.4944%
- % inhibition Apo pol 10' (DRC-1, concentration 10): 57.4142%
- % inhibition Apo pol 10' (DRC-1, concentration 20): 88.2417%
- % inhibition Apo pol 10' (DRC-1, concentration 40): 98.9011%
- % inhibition Apo pol 10' (DRC-1, concentration 80): 101.451%
- % inhibition Apol 90' (DRC-1, 90', concentration 2.5): 14.8722%
- % inhibition Apol 90' (DRC-1, 90', concentration 5): 18.228%
- % inhibition Apol 90' (DRC-1, 90', concentration 10): 36.638%
- % inhibition Apol 90' (DRC-1, 90', concentration 20): 73.4923%
- % inhibition Apol 90' (DRC-1, 90', concentration 40): 92.3698%
- % inhibition Apol 90' (DRC-1, 90', concentration 80): 99.716%
- % inhibition apPOL 180' (DRC-1, 180', concentration 2.5): 5.356%
- % inhibition apPOL 180' (DRC-1, 180', concentration 5): 9.027%
- % inhibition apPOL 180' (DRC-1, 180', concentration 10): 27.7566%
- % inhibition apPOL 180' (DRC-1, 180', concentration 20): 64.7558%
- % inhibition apPOL 180' (DRC-1, 180', concentration 40): 88.0246%
- % inhibition apPOL 180' (DRC-1, 180', concentration 80): 99.8487%
- % inhibition Apo pol 5' (DRC-2, 5', concentration 10 (unit not given)): 39%
- % inhibition Apo pol 5' (DRC-2, 5', concentration 40 (unit not given)): 75%
- % inhibition Apol 40' (DRC-2, 40', concentration 5 (unit not given)): 15%
- % inhibition Apol 40' [1]: 81%
- % inhibition Apol 40' (DRC-2, 40', concentration 40 (unit not given)): 86%
- % inhibition ApPOL 90' (DRC-2, 90', concentration 10 (unit not given)): 39%
- % inhibition ApPOL 90' [2]: 81%
- % inhibition apPOL 180' [3]: 75%
- % inhibition apPOL 180' (DRC-2, 180', concentration 80 (unit not given)): 86%
- % inhibition Apo pol 5' (DRC-2, 5', concentration 2.5): 2.61%
- % inhibition Apo pol 5' (DRC-2, 5', concentration 5): 15%
- % inhibition Apo pol 5' (DRC-2, 5', concentration 5 (unit not given)): 15%
- % inhibition Apo pol 5' (DRC-2, 5', concentration 10): 39%
- % inhibition Apo pol 5' (DRC-2, 5', concentration 20): 73%
- % inhibition Apo pol 5' (DRC-2, 5', concentration 40): 75%
- % inhibition Apo pol 5' (DRC-2, 5', concentration 80): 62%
- % inhibition Apol 40' (DRC-2, 40', concentration 2.5): 1.87%
- % inhibition Apol 40' (DRC-2, 40', concentration 5): 15%
- % inhibition Apol 40' (DRC-2, 40', concentration 10): 40%
- % inhibition Apol 40' (DRC-2, 40', concentration 20): 81%
- % inhibition Apol 40' (DRC-2, 40', concentration 40): 86%
- % inhibition Apol 40' (DRC-2, 40', concentration 80): 80%
- % inhibition ApPOL 90' (DRC-2, 90', concentration 2.5): 2.58%
- % inhibition ApPOL 90' (DRC-2, 90', concentration 5): 14%
- % inhibition ApPOL 90' (DRC-2, 90', concentration 10): 39%
- % inhibition ApPOL 90' (DRC-2, 90', concentration 20): 81%
- % inhibition ApPOL 90' (DRC-2, 90', concentration 40): 87%
- % inhibition ApPOL 90' (DRC-2, 90', concentration 80): 83%
- % inhibition apPOL 180' (DRC-2, 180', concentration 2.5): 3.63%
- % inhibition apPOL 180' (DRC-2, 180', concentration 5): 5%
- % inhibition apPOL 180' (DRC-2, 180', concentration 10): 30%
- % inhibition apPOL 180' (DRC-2, 180', concentration 20): 75%
- % inhibition apPOL 180' (DRC-2, 180', concentration 40): 85%
- % inhibition apPOL 180' (DRC-2, 180', concentration 80): 86%
- DNA Pol (primary screen value of the library well, unit not given): 49

SMILES: CO/N=C(\C(=O)N[C@@H]1C(=O)N2C(C(=O)O)=C(CSc3nc(=O)c(O)nn3C)CSC12)c1csc(N)n1 (stereo partly shown) [Molecule 83]
- IC50 (supplemental file 2, sheet IC50 nontoxic compounds, Pf-apPOL): 18.7 µM

SMILES: COc1ccc(NC(=O)Cn2ccc3c(=O)[nH]ccc32)cc1 [Molecule 13, COc1ccc(cc1)NC(=O)Cn1ccc2c1cc[nH]c2=O]
- % inhibition Apo pol 10' (DRC-1, concentration 2.5): 9.9864%
- % inhibition Apo pol 10' (DRC-1, concentration 5): 32.1099%
- % inhibition Apo pol 10' (DRC-1, concentration 10): 65.6259%
- % inhibition Apo pol 10' (DRC-1, concentration 20): 81.849%
- % inhibition Apo pol 10' (DRC-1, concentration 40): 89.1437%
- % inhibition Apo pol 10' (DRC-1, concentration 80): 82.2361%
- % inhibition Apol 90' (DRC-1, 90', concentration 2.5): 1.393%
- % inhibition Apol 90' (DRC-1, 90', concentration 5): 18.8368%
- % inhibition Apol 90' (DRC-1, 90', concentration 10): 50.5955%
- % inhibition Apol 90' (DRC-1, 90', concentration 20): 73.6159%
- % inhibition Apol 90' (DRC-1, 90', concentration 40): 87.1809%
- % inhibition Apol 90' (DRC-1, 90', concentration 80): 85.204%
- % inhibition apPOL 180' (DRC-1, 180', concentration 2.5): -3.687%
- % inhibition apPOL 180' (DRC-1, 180', concentration 5): 7.549%
- % inhibition apPOL 180' (DRC-1, 180', concentration 10): 35.4263%
- % inhibition apPOL 180' (DRC-1, 180', concentration 20): 60.6819%
- % inhibition apPOL 180' (DRC-1, 180', concentration 40): 82.9961%
- % inhibition apPOL 180' (DRC-1, 180', concentration 80): 83.4711%
- % inhibition Apo pol 5' (DRC-2, 5', concentration 2.5): 7%
- % inhibition Apo pol 5' (DRC-2, 5', concentration 5): 18%
- % inhibition Apo pol 5' (DRC-2, 5', concentration 10): 37%
- % inhibition Apo pol 5' (DRC-2, 5', concentration 20): 47%
- % inhibition Apo pol 5' (DRC-2, 5', concentration 40): 45%
- % inhibition Apo pol 5' (DRC-2, 5', concentration 80): 40%
- % inhibition Apol 40' (DRC-2, 40', concentration 2.5): 5.45%
- % inhibition Apol 40' (DRC-2, 40', concentration 5): 19%
- % inhibition Apol 40' (DRC-2, 40', concentration 10): 41%
- % inhibition Apol 40' (DRC-2, 40', concentration 20): 65%
- % inhibition Apol 40' (DRC-2, 40', concentration 40): 67%
- % inhibition Apol 40' (DRC-2, 40', concentration 80): 65%
- % inhibition ApPOL 90' (DRC-2, 90', concentration 2.5): 4%
- % inhibition ApPOL 90' (DRC-2, 90', concentration 5): 16%
- % inhibition ApPOL 90' (DRC-2, 90', concentration 10): 38%
- % inhibition ApPOL 90' (DRC-2, 90', concentration 20): 66%
- % inhibition ApPOL 90' (DRC-2, 90', concentration 40): 72%
- % inhibition ApPOL 90' (DRC-2, 90', concentration 80): 70%
- % inhibition apPOL 180' (DRC-2, 180', concentration 2.5): -2%
- % inhibition apPOL 180' (DRC-2, 180', concentration 5): 7%
- % inhibition apPOL 180' (DRC-2, 180', concentration 10): 27%
- % inhibition apPOL 180' (DRC-2, 180', concentration 20): 63%
- % inhibition apPOL 180' (DRC-2, 180', concentration 40): 74%
- % inhibition apPOL 180' (DRC-2, 180', concentration 80): 76%
- % inhibition Apo pol 5' (conc. 2.5, 5', DRC-2): 7%
- % inhibition apPOL 180' (conc. 5, 180', DRC-2): 7%
- % inhibition Apol 40' (conc. 20, 40', DRC-2): 65%
- % inhibition Apol 40' (conc. 80, 40', DRC-2): 65%
- DNA Pol (primary screen value by plate and well): 53
- DNA Pol [4]: 53
